Results on eight compounds are retold here after US20220347187A1, “HETEROCYCLIC COMPOUNDS AS KINASE INHIBITORS” (Nuvation Bio Inc., priority 2019, published 2022).

One assay addresses T1, CDK1 (cyclin B) (Homo sapiens, UniProt P06493).
T1 construct: purchased Invitrogen Life Technologies (screening service)
Nature of the assay: Z'-LYTE kinase assay. Format: biochemical. The following applies: ATP 34 μM, 60 minutes. The method, then: IC50 values of compounds against CDK1 (cyclin B) were determined by Z′-LYTE™. These screening assays were performed at Invitrogen Life Technologies (Grand Island, N.Y.) on a low volume NBS, black 384-well plate (#4514, Corning), 0.1 μL of 100× test compound in 100% DMSO (at specific solutions) was mixed with 2.4 μL of Kinase Buffer (50 mM HEPES pH 7.5, 0.01% BRIJ-35, 10 mM MgCl2, 1 mM EGTA), 5 μL of 2× Kinase (3.5-46.4 ng CDK1/cyclin B)/Peptide (2 μM Ser/Thr 18), and 2.5 μL of 4×ATP solution (34 μM). The plates were shaken for 30 seconds, and incubated for 60 minutes at room temperature. Development Reagent Solution (5 μL of 1:1024 dilution) was added to the plates followed with another 30-second plate shake, and the plates were further incubated at room temperature for one hour. The plates were read on fluorescence plate reader with Dual emission at 445 nm and 520 nm.
(§1) The following equations were used for Z′-LYTE™ Screening Assay Data Analysis. Percent inhibition (100-% activity) was fitted to the “four-parameter logistic model” in XLfit for determination of IC50 values.

A further assay addresses T2, CDK2 (cyclin A) (Homo sapiens, UniProt P24941).
T2 construct: purchased Invitrogen Life Technologies (screening service)
Nature of the assay: Z'-LYTE kinase assay. Format: biochemical. The following applies: ATP 31 μM, 60 minutes. The method, then:
IC50 values of compounds against CDK2 (cyclin A) were determined by Z′-LYTE™. These screening assays were performed at Invitrogen Life Technologies (Grand Island, N.Y.) on a low volume NBS, black 384-well plate (#4514. Corning), 0.1 μL of 100× test compound in 100% DMSO (at specific solutions) was mixed with 2.4 μL of Kinase Buffer (50 mM HEPES pH 7.5, 0.01% BRIJ-35, 10 mM MgCl2, 1 mM EGTA), 5 μL of 2× Kinase (1.22-10.3 ng CDK2/cyclin A)/Peptide (2 μM Ser/Thr 12), and 2.5 μL of 4×ATP solution (31 μM). The plates were shaken for 30 seconds, and incubated for 60 minutes at room temperature. Development Reagent Solution (5 μL of 1:1024 dilution) was added to the plates followed with another 30-second plate shake and the plates were further incubated at room temperature for one hour. The plates were read on fluorescence plate reader with Dual emission at 445 nm and 520 nm.
as §1

A further assay concerns DU4475. Nature of the assay: Cancer cell proliferation assay as a single agent (cell viability). It is filed as cell-based. The following applies: Homo sapiens, DU-4475; Table 4; Rb negative breast carcinoma; 144H treatment. The method, then:
(§2) The effects of test compounds were studied in two breast cancer cell lines of different subtype. The cancer cells (Table 3) were harvested during the logarithmic growth period and counted. Cell concentrations were adjusted to the appropriate number with respective medium and 90 μL cell suspensions were added to 96-well plates. After cells were seeded, the plates were shaken gently to distribute cells evenly and incubated at 37° C., 5% CO2 on day 1.
(§3) Cells were treated with test compounds at 7 to 9 concentrations within a desired concentration range (e.g. 1.1 nM-10 μM) on day 2 by series diluting the test compound stock solution (10 mM in DMSO) with culture medium. Treatment duration was 144H (with a medium change at 72H) for both MCF-7 and DU4475 cells. Cell viability was assessed by Cell Titer-Glo® as recommended by Promega (Cat. No.: G7572), or by resazurin assay (Sigma Aldrich, Cat. No.: R7017) post treatment.
(§4) Cell viability data were plotted using GraphPad Prism (GraphPad Software, Inc., San Diego, Calif.). In addition, a nonlinear regression model with a sigmoidal dose response and variable slope within GraphPad Prism was used to calculate the IC50 value of individual test compounds.

In the next assay the test system is MCF-7. Described as above. It is filed as cell-based. The note with it: Homo sapiens, MCF7; Table 4; Rb positive breast adenocarcinoma; 144H treatment. On the procedure:
as §2, §3, §4

Another assay concerns the target T3, CDK4 (Homo sapiens, UniProt P11802).
T3 construct: purchased Invitrogen PR8064 A
Nature of the assay: In vitro kinase inhibition, luminescence (ADP-Glo) with retinoblastoma as substrate. Format: biochemical. The following applies: ATP 25 μM, 2H at room temperature. On the procedure: (§5) IC50 values of compounds against CDK4 and CDK6 were determined by luminescence using retinoblastoma as substrate. Kinase assays were performed in kinase buffer (#PV6135, Invitrogen, Life Technologies Grand Island. N.Y.) where total reaction volume was […] in 96-well half area white plates (#3693, Costar). One microliter of 25× test compounds at specific concentrations (e.g., final concentration range: 0.1 nM-200 nM) was mixed with 10 μL of 2.5× kinase (5 nM, CDK4 #PR8064 A and CDK6 #PR8422B, Invitrogen) solution and 14 μL of 4× mixed solution with retinoblastoma (1 μM, #12-439, EMD Millipore. Hayward, Calif.) and ATP (25 μM, #V7038, Promega, Madison, Wis.). The plates were covered and incubated for 2H at room temperature. At the end of incubation, 25 μL of stop solution—ADP Glo reagent (#V7002. Promega) was added. After incubation for 45 min at room temperature, 50 μL of detection reagent (##V7002, Promega) was added. Readings were taken at 15 min and 45 min incubation after detection reagent was added in a Synergy Neo Plate reader (BioTek, Winooski, Vt.) at single excitation of 340 nm and Dual emission at 495 nm and 520 nm respectively. The following equations were used in the CDK4 and CDK6 assay data analysis. Percent inhibition (100-% activity) was fitted to the “four-parameter logistic model” in XLfit for determination of IC50 values.
(§6) Percent conversion of enzyme=100−{(RLUNo Drug−No enzyme*100)/RLUNo drug+Enzyme} Equation 1:
(§7) Percent conversion at each data point=100−{(RLUAverage(Drug+enzyme)*100)/RLUNo drug+Enzyme} Equation 2:
(§8) Percent Inhibition=100*(% Conversioneach data point/% ConversionEnzyme) Equation 3: […]
Background: ADP-Glo first removes unused ATP, then detects ADP through luciferase.

For a further assay, the target named is T4, CDK6 (Homo sapiens, UniProt Q00534).
T4 construct: purchased Invitrogen PR8422B
T4 sequence (Q00534 whole entry): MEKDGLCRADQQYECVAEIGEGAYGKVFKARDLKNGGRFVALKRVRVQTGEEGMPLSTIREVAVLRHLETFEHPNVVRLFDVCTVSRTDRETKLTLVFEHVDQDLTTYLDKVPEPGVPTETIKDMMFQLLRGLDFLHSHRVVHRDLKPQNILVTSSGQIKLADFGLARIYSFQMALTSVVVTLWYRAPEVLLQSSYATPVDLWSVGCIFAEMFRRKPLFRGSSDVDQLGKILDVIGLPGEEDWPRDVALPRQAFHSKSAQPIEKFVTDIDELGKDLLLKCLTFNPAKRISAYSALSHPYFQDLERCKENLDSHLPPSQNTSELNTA
T4 sequence (P24385 whole entry partner): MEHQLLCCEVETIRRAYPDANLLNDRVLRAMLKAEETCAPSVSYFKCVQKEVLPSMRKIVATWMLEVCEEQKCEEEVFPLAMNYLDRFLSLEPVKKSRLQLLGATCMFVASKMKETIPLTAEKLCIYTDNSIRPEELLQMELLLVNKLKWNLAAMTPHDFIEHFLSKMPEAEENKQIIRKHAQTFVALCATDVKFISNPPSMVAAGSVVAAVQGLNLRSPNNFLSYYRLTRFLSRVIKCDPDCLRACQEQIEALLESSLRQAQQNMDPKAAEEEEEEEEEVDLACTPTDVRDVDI
Described as above. It is filed as biochemical. The following applies: ATP 25 μM, 2H at room temperature. The method, then: as §5, §6, §7, §8

The next assay concerns the target T5, PI3Kδ (Homo sapiens, UniProt O00329).
T5 construct: purchased Reaction Biology Corporation (service assay)
Put plainly: PI3Kδ kinase assay (ADP-Glo, Reaction Biology Corporation). It is filed as biochemical. The method, then:
IC50 values of compounds against the PI3KS kinase were determined by an assay performed by Reaction Biology Corporation (Malvern, Pa.). Briefly, this assay was conducted in buffer (Tris-HCl 40 mM (pH7.5), Orthovanadate 3 mM, MgCl2 20 mM, DTT 2 mM, CHAPS 0.05%, DMSO 1%). PI3K8 kinase was added to the reaction solution and mixed gently. The test compounds in 100% DMSO (at specific solutions) were mixed with the kinase reaction mixture to achieve the final compounds at pre-defined concentrations (e.g., range—0.5 nM to 100 μM) by Acoustic technology (Echo550; nanoliter range). After incubating for 10 min at room temp, ATP was added into the reaction mixture to initiate the reaction followed by a 30-min incubation at 30° C. After quenching the reaction with ADP-Glo reagent, the plates were incubated for 40 min. The Detection Mixture was added, and the plate was incubated for an additional 30 min. At the end of incubation, luminescence was measured. For data analysis, the luminescence was converted into μM ADP production based on ADP standard curves. The nonlinear regression to obtain the standard curve and IC50 values was performed using GraphPad Prism (GraphPad Software. Inc., San Diego, Calif.).

Another assay relates to MCF-7-PR. Nature of the assay: Cell viability in palbociclib-resistant cell line. Format: cell-based. The following applies: MCF-7-PR vs MCF-7. The method, then: as §3, §4
The effects of test compound in a palbociclib-resistant cell line and a parental, non-resistant cell line were compared. The palbociclib-resistant cell line (“MCF-7-PR”) was derived from the parental, non-resistant cell line (MCF-7 breast adenocarcinoma cells) by culture of cells over a period of three months in increasing concentrations of palbociclib, starting from about 350 nM and ending at about 850 nM, the final concentration at which they were then maintained in culture. […]

T3 sequence (P11802 whole entry): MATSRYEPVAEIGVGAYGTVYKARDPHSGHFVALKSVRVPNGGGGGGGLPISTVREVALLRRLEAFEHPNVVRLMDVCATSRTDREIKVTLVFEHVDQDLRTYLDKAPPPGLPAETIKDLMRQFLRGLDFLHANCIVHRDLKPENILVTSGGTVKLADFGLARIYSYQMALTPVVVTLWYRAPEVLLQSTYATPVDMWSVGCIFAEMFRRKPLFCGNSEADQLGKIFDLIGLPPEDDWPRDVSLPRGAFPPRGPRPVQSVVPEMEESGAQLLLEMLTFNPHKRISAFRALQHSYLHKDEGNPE
T3 sequence (P24385 whole entry partner): as the sequence (P24385 whole entry partner) above
T1 sequence (P06493 whole entry): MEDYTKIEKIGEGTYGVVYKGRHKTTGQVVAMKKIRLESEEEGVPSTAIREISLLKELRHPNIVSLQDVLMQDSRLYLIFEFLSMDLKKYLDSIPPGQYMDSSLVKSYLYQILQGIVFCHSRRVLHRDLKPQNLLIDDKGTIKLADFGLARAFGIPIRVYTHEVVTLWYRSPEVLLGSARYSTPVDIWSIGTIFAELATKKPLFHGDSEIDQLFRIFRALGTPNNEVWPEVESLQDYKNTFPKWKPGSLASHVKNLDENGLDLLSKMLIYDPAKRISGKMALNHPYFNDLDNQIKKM
T1 sequence (P14635 whole entry partner): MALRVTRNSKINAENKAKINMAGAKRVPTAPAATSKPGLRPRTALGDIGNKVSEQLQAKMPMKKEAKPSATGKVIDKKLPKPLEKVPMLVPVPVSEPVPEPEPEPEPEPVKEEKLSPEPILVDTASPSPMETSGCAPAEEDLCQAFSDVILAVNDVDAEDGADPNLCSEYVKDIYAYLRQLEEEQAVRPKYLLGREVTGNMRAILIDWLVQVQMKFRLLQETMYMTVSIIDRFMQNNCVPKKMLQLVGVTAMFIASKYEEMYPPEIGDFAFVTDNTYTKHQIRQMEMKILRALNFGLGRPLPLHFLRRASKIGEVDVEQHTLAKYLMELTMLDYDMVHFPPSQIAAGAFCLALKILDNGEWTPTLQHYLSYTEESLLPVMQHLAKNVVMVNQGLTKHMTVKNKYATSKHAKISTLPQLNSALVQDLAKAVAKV
T5 sequence (O00329 whole entry): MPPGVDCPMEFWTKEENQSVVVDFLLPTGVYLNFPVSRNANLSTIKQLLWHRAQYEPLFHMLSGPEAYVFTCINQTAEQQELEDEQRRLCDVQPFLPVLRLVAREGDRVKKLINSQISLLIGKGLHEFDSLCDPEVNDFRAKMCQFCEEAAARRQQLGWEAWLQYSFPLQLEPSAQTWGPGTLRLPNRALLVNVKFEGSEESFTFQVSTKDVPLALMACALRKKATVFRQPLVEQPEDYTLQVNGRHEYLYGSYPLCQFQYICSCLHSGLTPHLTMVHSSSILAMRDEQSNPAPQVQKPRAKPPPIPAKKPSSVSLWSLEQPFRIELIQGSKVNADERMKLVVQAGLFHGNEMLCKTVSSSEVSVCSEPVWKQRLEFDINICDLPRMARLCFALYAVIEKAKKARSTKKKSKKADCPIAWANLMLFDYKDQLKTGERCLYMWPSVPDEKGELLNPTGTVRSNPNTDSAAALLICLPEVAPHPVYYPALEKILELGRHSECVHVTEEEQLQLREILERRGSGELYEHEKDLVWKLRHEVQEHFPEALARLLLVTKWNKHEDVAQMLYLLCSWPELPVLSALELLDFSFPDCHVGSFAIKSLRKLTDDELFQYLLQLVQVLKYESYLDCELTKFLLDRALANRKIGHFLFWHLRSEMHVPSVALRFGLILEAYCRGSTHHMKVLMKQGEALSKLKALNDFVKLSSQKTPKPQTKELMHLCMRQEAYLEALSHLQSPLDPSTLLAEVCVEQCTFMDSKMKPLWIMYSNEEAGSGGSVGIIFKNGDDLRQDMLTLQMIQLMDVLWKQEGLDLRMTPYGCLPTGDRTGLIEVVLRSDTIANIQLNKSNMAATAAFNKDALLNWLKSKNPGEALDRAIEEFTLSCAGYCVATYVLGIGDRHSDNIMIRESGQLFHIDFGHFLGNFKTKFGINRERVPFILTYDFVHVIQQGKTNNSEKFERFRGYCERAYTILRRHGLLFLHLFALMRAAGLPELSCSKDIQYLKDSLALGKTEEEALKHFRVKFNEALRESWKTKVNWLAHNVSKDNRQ
T5 sequence (P27986 whole entry partner): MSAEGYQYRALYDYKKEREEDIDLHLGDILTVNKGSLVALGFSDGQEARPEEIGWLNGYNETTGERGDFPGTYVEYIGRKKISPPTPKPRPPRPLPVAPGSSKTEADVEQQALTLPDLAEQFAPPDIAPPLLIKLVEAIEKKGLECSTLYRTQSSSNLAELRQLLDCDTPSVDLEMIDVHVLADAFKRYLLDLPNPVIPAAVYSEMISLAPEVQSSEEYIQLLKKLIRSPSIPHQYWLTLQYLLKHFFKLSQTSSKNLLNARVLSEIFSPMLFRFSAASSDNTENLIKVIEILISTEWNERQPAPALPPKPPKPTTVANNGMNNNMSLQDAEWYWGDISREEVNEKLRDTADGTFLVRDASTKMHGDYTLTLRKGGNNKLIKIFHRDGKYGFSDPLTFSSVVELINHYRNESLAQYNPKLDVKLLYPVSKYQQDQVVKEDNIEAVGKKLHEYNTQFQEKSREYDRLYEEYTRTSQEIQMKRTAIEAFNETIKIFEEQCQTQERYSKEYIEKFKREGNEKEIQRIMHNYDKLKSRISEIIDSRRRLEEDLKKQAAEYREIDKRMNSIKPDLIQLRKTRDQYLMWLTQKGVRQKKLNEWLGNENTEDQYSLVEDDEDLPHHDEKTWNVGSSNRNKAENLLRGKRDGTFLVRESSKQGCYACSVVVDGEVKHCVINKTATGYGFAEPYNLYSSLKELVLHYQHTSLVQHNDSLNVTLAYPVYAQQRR

Broadly, the IC50 is the concentration that gives 50% inhibition. As for `CC(C)N1CCOc2c(F)cc(-c3nc(NC4CCN(S(C)(=O)=O)CC4)ncc3F)cc21` [Compound 5, 5-fluoro-4-(8-fluoro-4-isopropyl-3,4-dihydro-2H-benzo[b][1,4]oxazin-6-yl)-N-(1-(methylsulfonyl)piperidin-4-yl)pyrimidin-2-amine], the IC50 against CDK1 (cyclin B) was less than 1 nM; at CDK2 (cyclin A), less than 1 nM; with DU4475, 230 nM; in the assay on MCF-7 it was 525 nM; at CDK4, 2 nM; at CDK6, 9 nM. Also, the IC50 at PI3Kδ was more than 36600 nM.
On to `CC(C)N1CCOc2c(F)cc(-c3nc(Nc4cc(N5CCCNCC5)ccn4)ncc3F)cc21` [Compound 2, N-(4-(1,4-diazepan-1-yl)pyridin-2-yl)-5-fluoro-4-(8-fluoro-4-isopropyl-3,4-dihydro-2H-benzo[b][1,4]oxazin-6-yl)pyrimidin-2-amine], for which the half-inhibitory concentration (IC50) at CDK1 (cyclin B) was 2800 nM; against CDK2 (cyclin A) it was 1230 nM; in the assay with DU4475, 1640 nM; in the assay with MCF-7, 823 nM; at CDK4, more than 200 nM; at CDK6, more than 200 nM. On PI3Kδ, the IC50 was more than 50000 nM.
On to `CC(=O)c1c(C)c2cnc(Nc3ccc(N4CCNCC4)cn3)nc2n(C2CCCC2)c1=O` [palbociclib, reference compound], for which the “resistance to palbociclib compared to parental MCF-7 cells, as increase in cell viability IC50” value with MCF-7-PR is reported as “at least 5 fold”.
For the compound `CC(C)N1CCOc2c(F)cc(-c3nc(Nc4ccc(N5CCN(C)C(=O)C5)cn4)ncc3F)cc21` [Compound 86, 4-(6-((5-fluoro-4-(8-fluoro-4-isopropyl-3,4-dihydro-2H-benzo[b][1,4]oxazin-6-yl)pyrimidin-2-yl)amino)pyridin-3-yl)-1-methylpiperazin-2-one], the IC50 on CDK1 (cyclin B) stood at 1480 nM; on CDK2 (cyclin A) it was 278 nM; with DU4475 it was 1140 nM; with MCF-7 it was 160 nM; on CDK4 it was 1 nM; at CDK6, 3 nM.
Turning to `CC(C)N1CCOc2c(F)cc(-c3nc(Nc4ccc(N5CCNC(=O)C5)cn4)ncc3F)cc21` [Compound 85, 4-(6-((5-fluoro-4-(8-fluoro-4-isopropyl-3,4-dihydro-2H-benzo[b][1,4]oxazin-6-yl)pyrimidin-2-yl)amino)pyridin-3-yl)piperazin-2-one], the IC50 on CDK1 (cyclin B) worked out at 4550 nM; on CDK2 (cyclin A) it was 2470 nM; in the assay on DU4475, 3610 nM; in the assay on MCF-7, 392 nM; at CDK4, 10 nM; on CDK6, 26 nM.
For `CCN1CCC(COc2ccc(Nc3cc(-c4cc(F)c5c(c4)N(C(C)C)CCO5)c(F)cn3)nc2)CC1` [Compound 4, N-(5-((1-ethylpiperidin-4-yl)methoxy)pyridin-2-yl)-5-fluoro-4-(8-fluoro-4-isopropyl-3,4-dihydro-2H-benzo[b][1,4]oxazin-6-yl)pyridin-2-amine], the IC50 on CDK1 (cyclin B) is 200 nM; against CDK2 (cyclin A), 75 nM; in the assay on DU4475, 275 nM; in the assay on MCF-7 it was 215 nM; on CDK4, 7 nM; at CDK6 it was 12 nM. The same compound returned an IC50 at PI3Kδ of more than 30200 nM.
As to `CC(C)N1CCOc2c(F)cc(-c3nc(Nc4cccc(N5CCCNCC5)c4)ncc3F)cc21` [Compound 1, N-(3-(1,4-diazepan-1-yl)phenyl)-5-fluoro-4-(8-fluoro-4-isopropyl-3,4-dihydro-2H-benzo[b][1,4]oxazin-6-yl)pyrimidin-2-amine], the IC50 in the assay on DU4475 amounted to 285 nM; in the assay on MCF-7, 252 nM; at CDK4, 40 nM; on CDK6 it was 53 nM.
`CCN1CCC(COc2ccc(Nc3ncc(F)c(-c4cc(F)c5c(c4)N(C(C)C)CCO5)n3)nc2)CC1` [Compound 3, N-(5-((1-ethylpiperidin-4-yl)methoxy)pyridin-2-yl)-5-fluoro-4-(8-fluoro-4-isopropyl-3,4-dihydro-2H-benzo[b][1,4]oxazin-6-yl)pyrimidin-2-amine]: the IC50 on CDK1 (cyclin B) worked out at 1490 nM; on CDK2 (cyclin A), 207 nM; in the assay with DU4475, 655 nM; with MCF-7, 60 nM; on CDK4, 5 nM; at CDK6 it was 6.5 nM. On PI3Kδ, the IC50 was more than 50000 nM.
